In brackets after ≈: the same amount, converted by molar mass.
Key:
Format in all cases: physicochemical
[1] = Competitive slurry experiments in n-heptane (XRPD); settings: slurry in 10 volumes of n-heptane
Procedure: Competitive slurry experiments were performed to ascertain if Compound 1 samples of Form 1 and mixtures of Form 1 and Form 3 can be converted to Form 3. Pure Form 1 and Form 3 were also tested. First, 700 mg of Compound 1 were added in different ratios to 10 volumes of n-heptane and stirred for […] (Table 2). After 16 hours and four days, the samples were checked for polymorphic form by XRPD. […]

[2] = Solubility determination by HPLC
Excerpt: Because of the small differences in solubilities, HPLC was used to measure the solubilities. The values were conformed to the shake-flask results. […] In alcohol, there was a difference in dissolution rate. This difference was not observed for aqueous solutions.

[3] = Stability of polymorph form by pH measurement when stirred in water
Procedure: Additional tests were performed to understand the differences between form 1 and 3. One of those tests was to check stability of polymorph form by pH measurement at several times when the different forms were stirred in water (Table 11). During the tests, any changes in polymorph form were checked.

[4] = Shake-flask solubility determination with stepwise addition of solvent
Excerpt: The method applied was a shake-flask solubility determination with stepwise addition of the solvent until complete dissolution is observed visually.

[5] = Thermodynamic stability of polymorphs; settings: particularly at temperatures of less than 95° C., more particularly less than 80° C.
[6] = Solubility of Compound 1, Form 3 in MTBE/n-heptane mixtures; settings: organic solvent or mixture, thermodynamic from solid
Procedure: Solubility of Compound 1, Form 3
The solubility of Compound 1 was evaluated in mixtures of MTBE/n-heptane mixtures at 10° C. and 45° C. The form of the residual solids was examined by XRPD.

[7] = Solubility of Compound 1 in organic solvents other than MTBE/n-heptane; settings: thermodynamic from solid
Procedure: Solubility and Form Measurement
The solubility of Compound 1 was evaluated in organic solvents other than MTBE/n-heptane mixtures. The form of the residual solids was examined by XRPD.

[8] = Competitive slurry of Form 1 and Form 3 in MTBE/n-heptane mixtures (XRPD)
Excerpt: Compound 1 was also subjected to competitive slurry experiments between Compound 1, Form 1 and Compound 1, Form 3 in MTBE/n-heptane mixtures as summarized in Table 7 below.

CCOC(=O)[C@@H]1CC2(CCN(c3cc(O[C@H](c4ccc(Cl)cc4-c4ccccc4)C(F)(F)F)nc(N)n3)CC2)CN1 [ES928-60-6]
XRPD 16 hours [1]: Form 3
XRPD 4 days [1]: Form 3

CCOC(=O)[C@@H]1CC2(CCN(c3cc(O[C@H](c4ccc(Cl)cc4-c4ccccc4)C(F)(F)F)nc(N)n3)CC2)CN1 [EdA-928-63-1]
Conc. Actual ([2]; Ethanol Abs.): 129000 µg/mL

CCOC(=O)[C@@H]1CC2(CCN(c3cc(O[C@H](c4ccc(Cl)cc4-c4ccccc4)C(F)(F)F)nc(N)n3)CC2)CN1 [ES928-59-2]
pH (2 hours) [3]: 8.26
pH (4 hours) [3]: 7.75
pH (7 hours) [3]: 7.76

CCOC(=O)[C@@H]1CC2(CCN(c3cc(O[C@H](c4ccc(Cl)cc4-c4ccccc4)C(F)(F)F)nc(N)n3)CC2)CN1 [ES928-60-1]
XRPD 16 hours [1]: Form 1
XRPD 4 days [1]: Form 3

CCOC(=O)[C@@H]1CC2(CCN(c3cc(O[C@H](c4ccc(Cl)cc4-c4ccccc4)C(F)(F)F)nc(N)n3)CC2)CN1 [Form 1, (S)-ethyl 8-(2-amino-6-((R)-1-(5-chloro-[1,1′-biphenyl]-2-yl)-2,2,2-trifluoroethoxy)pyrimidin-4-yl)-2,8-diazaspiro[4.5]decane-3-carboxylate]
solubility ([4]; 2-methyl-tetrahydrofuran, organic solvent or mixture, thermodynamic from solid, 2-methyl-tetrahydrofuran, read-out: Solubility): 97 to 970 mg/mL (≈ 164 to 1640 mM)
solubility ([4]; 2-propanol): 98 to 980 mg/mL
solubility ([4]; I-propanol): 101 to 1010 mg/mL
solubility ([4]; N,N-dimethyl-acetamide, organic solvent or mixture, thermodynamic from solid, N,N-dimethyl-acetamide, read-out: Solubility): 96 to 960 mg/mL (≈ 163 to 1630 mM)
solubility ([4]; acetic acid): 32 to 95 mg/mL
solubility ([4]; acetone, organic solvent or mixture, thermodynamic from solid, acetone, read-out: Solubility): 96 to 960 mg/mL (≈ 163 to 1630 mM)
solubility ([4]; acetonitrile, organic solvent or mixture, thermodynamic from solid, acetonitrile, read-out: Solubility): 99 to 990 mg/mL (≈ 168 to 1680 mM)
solubility ([4]; dimethyl sulfoxide, organic solvent or mixture, thermodynamic from solid, dimethyl sulfoxide, read-out: Solubility): 101 to 1010 mg/mL (≈ 171 to 1710 mM)
solubility ([4]; ethanol): 96 to 960 mg/mL
solubility ([4]; ethyl acetate, organic solvent or mixture, thermodynamic from solid, ethyl acetate, read-out: Solubility): 101 to 1010 mg/mL (≈ 171 to 1710 mM)
solubility ([4]; formic acid 99%, organic solvent or mixture, thermodynamic from solid, formic acid 99%, read-out: Solubility): 97 to 970 mg/mL (≈ 164 to 1640 mM)
solubility ([4]; isopropyl acetate, organic solvent or mixture, thermodynamic from solid, isopropyl acetate, read-out: Solubility): 103 to 1030 mg/mL (≈ 175 to 1750 mM)
solubility ([4]; methanol, organic solvent or mixture, thermodynamic from solid, methanol, read-out: Solubility): 99 to 990 mg/mL (≈ 168 to 1680 mM)
solubility ([4]; methyl isobutyl, organic solvent or mixture, thermodynamic from solid, methyl isobutyl, read-out: Solubility): 99 to 990 mg/mL (≈ 168 to 1680 mM)
solubility ([4]; methyl tert-butyl ether, organic solvent or mixture, thermodynamic from solid, methyl tert-butyl ether, read-out: Solubility): 102 to 1020 mg/mL (≈ 173 to 1730 mM)
solubility ([4]; n-heptane, organic solvent or mixture, thermodynamic from solid, n-heptane, read-out: Solubility): < 10.1 mg/mL
solubility ([4]; tetrahydrofuran, organic solvent or mixture, thermodynamic from solid, tetrahydrofuran, read-out: Solubility): 97 to 970 mg/mL (≈ 164 to 1640 mM)
solubility ([4]; toluene, organic solvent or mixture, thermodynamic from solid, toluene, read-out: Solubility): 98 to 980 mg/mL (≈ 166 to 1660 mM)
solubility ([4]; water, thermodynamic from solid, water, read-out: Solubility): < 10 mg/mL
XRPD 16 hours [1]: remained as Form 1
XRPD 4 days [1]: slowly converts to Form 3

CCOC(=O)[C@@H]1CC2(CCN(c3cc(O[C@H](c4ccc(Cl)cc4-c4ccccc4)C(F)(F)F)nc(N)n3)CC2)CN1 [Form 3, (S)-ethyl 8-(2-amino-6-((R)-1-(5-chloro-[1,1′-biphenyl]-2-yl)-2,2,2-trifluoroethoxy)pyrimidin-4-yl)-2,8-diazaspiro[4.5]decane-3-carboxylate]
thermodynamic stability compared to crystalline Form 1 [5]: substantially greater thermodynamic stability
solubility ([4]; 2-methyl-tetrahydrofuran): 106 to 1060 mg/mL
solubility ([4]; 2-propanol): <10.1 mg/mL
solubility ([4]; I-propanol): 35 to 104 mg/mL
solubility ([4]; N,N-dimethyl-acetamide): 108 to 1080 mg/mL
solubility ([4]; acetic acid): 104 to 1040 mg/mL
solubility ([4]; acetone): 108 to 1080 mg/mL
solubility ([4]; acetonitrile): 99 to 990 mg/mL
solubility ([4]; dimethyl sulfoxide): 109 to 1090 mg/mL
solubility ([4]; ethanol): 33 to 100 mg/mL
solubility ([4]; ethyl acetate): 95 to 950 mg/mL
solubility ([4]; formic acid 99%): 96 to 960 mg/mL
solubility ([4]; isopropyl acetate): 94 to 940 mg/mL
solubility ([4]; methanol): 102 to 1020 mg/mL
solubility ([4]; methyl isobutyl): 100 to 1000 mg/mL
solubility ([4]; methyl tert-butyl ether): 106 to 1060 mg/mL
solubility ([4]; n-heptane): <9.9 mg/mL
solubility ([4]; tetrahydrofuran): 99 to 990 mg/mL
solubility ([4]; toluene): 105 to 1050 mg/mL
solubility ([4]; water): <10.0 mg/mL
dissolution of remaining slurry in time ([2]; ethanol): dissolved completely
solubility ([6]; MTBE/n-heptane 1/0, 45 °C): > 500 mg/mL
solubility ([6]; MTBE/n-heptane 1/1, 10 °C): 27.2 mg/mL (≈ 46.1 mM)
solubility ([6]; MTBE/n-heptane 1/1, 45 °C): 89.4 mg/mL (≈ 152 mM)
solubility ([6]; MTBE/n-heptane 1/2, 10 °C): 17.5 mg/mL (≈ 29.7 mM)
solubility ([6]; MTBE/n-heptane 1/4, 10 °C): 6.2 mg/mL (≈ 10.5 mM)
solubility ([6]; MTBE/n-heptane 1/5, 45 °C): 4.2 mg/mL (≈ 7.12 mM)

CCOC(=O)[C@@H]1CC2(CCN(c3cc(O[C@H](c4ccc(Cl)cc4-c4ccccc4)C(F)(F)F)nc(N)n3)CC2)CN1 [ES-928-62-4]
Conc. Actual ([2]; Buffer pH 1.2): 46000 µg/mL

CCOC(=O)[C@@H]1CC2(CCN(c3cc(O[C@H](c4ccc(Cl)cc4-c4ccccc4)C(F)(F)F)nc(N)n3)CC2)CN1 [ES928-59-1]
pH (2 hours) [3]: 8.68
pH (4 hours) [3]: 8.22
pH (7 hours) [3]: 8.05

CCOC(=O)[C@@H]1CC2(CCN(c3cc(O[C@H](c4ccc(Cl)cc4-c4ccccc4)C(F)(F)F)nc(N)n3)CC2)CN1 [ES928-60-3]
XRPD 16 hours [1]: Form 3
XRPD 4 days [1]: Form 3

CCOC(=O)[C@@H]1CC2(CCN(c3cc(O[C@H](c4ccc(Cl)cc4-c4ccccc4)C(F)(F)F)nc(N)n3)CC2)CN1 [Compound 1, (S)-ethyl 8-(2-amino-6-((R)-1-(5-chloro-[1,1′-biphenyl]-2-yl)-2,2,2-trifluoroethoxy)pyrimidin-4-yl)-2,8-diazaspiro[4.5]decane-3-carboxylate]
solubility ([7]; EA/n-heptane 1:1, 10 °C, organic solvent or mixture): 422 mg/mL (≈ 715 mM)
solubility ([7]; EA/n-heptane 1:3, 10 °C, organic solvent or mixture): 115 mg/mL (≈ 195 mM)
solubility ([7]; EtOH/n-heptane 1:1, 10 °C, organic solvent or mixture): 396 mg/mL (≈ 671 mM)
solubility ([7]; EtOH/n-heptane 1:3, 10 °C, organic solvent or mixture): 192 mg/mL (≈ 326 mM)
solubility ([7]; IPA, 10 °C, organic solvent or mixture): 79.6 mg/mL (≈ 135 mM)
solubility ([7]; IPA, 50 °C, organic solvent or mixture): > 518 mg/mL
solubility ([7]; MTBE, 10 °C, organic solvent or mixture): > 211 mg/mL
solubility ([7]; MTBE, 50 °C, organic solvent or mixture): > 615 mg/mL
solubility ([7]; acetone/n-heptane 1:1, 10 °C, organic solvent or mixture): > 589 mg/mL
solubility ([7]; acetone/n-heptane 1:3, 10 °C, organic solvent or mixture): 208 mg/mL (≈ 353 mM)
solubility ([7]; n-butanol, 10 °C, organic solvent or mixture): 268 mg/mL (≈ 455 mM)
solubility ([7]; n-butanol, 50 °C, organic solvent or mixture): > 758 mg/mL
solubility ([7]; n-heptane, 50 °C, organic solvent or mixture): 9.5 mg/mL (≈ 16.1 mM)
solubility ([7]; water, 50 °C): 1.2 mg/mL (≈ 2.03 mM)
XRPD (1~2 hours) ([8]; MTBE/n-heptane 1/1(v/v), 45 °C): Form 3
XRPD (19 hours) ([8]; MTBE/n-heptane 1/1(v/v), 45 °C): Form 3
XRPD (1~2 hours) ([8]; MTBE/n-heptane 1/4(v/v), 10 °C): Form 1 +
XRPD (65 hours) ([8]; MTBE/n-heptane 1/4(v/v), 10 °C): Form 3
XRPD (1~2 hours) ([8]; MTBE/n-heptane 1/4(v/v), 45 °C): Form 1+
XRPD (19 hours) ([8]; MTBE/n-heptane 1/4(v/v), 45 °C): Form 3
XRPD (1~2 hours) ([8]; MTBE/n-heptane 1/5(v/v), 10 °C): Form 1 +
XRPD (65 hours) ([8]; MTBE/n-heptane 1/5(v/v), 10 °C): Form 3
XRPD (1~2 hours) ([8]; MTBE/n-heptane 1/5(v/v), 45 °C): Form +
XRPD (65 hours) ([8]; MTBE/n-heptane 1/5(v/v), 45 °C): Form 3

CCOC(=O)[C@@H]1CC2(CCN(c3cc(O[C@H](c4ccc(Cl)cc4-c4ccccc4)C(F)(F)F)nc(N)n3)CC2)CN1 [ES928-59-3]
pH (2 hours) [3]: 8.71
pH (4 hours) [3]: 8.65
pH (7 hours) [3]: 8.32

CCOC(=O)[C@@H]1CC2(CCN(c3cc(O[C@H](c4ccc(Cl)cc4-c4ccccc4)C(F)(F)F)nc(N)n3)CC2)CN1 [EdA-928-63-2]
Conc. Actual ([2]; Ethanol Abs.): 58000 µg/mL

CCOC(=O)[C@@H]1CC2(CCN(c3cc(O[C@H](c4ccc(Cl)cc4-c4ccccc4)C(F)(F)F)nc(N)n3)CC2)CN1 [ES928-60-2]
XRPD 16 hours [1]: Mixture 1
XRPD 4 days [1]: Form 3

CCOC(=O)[C@@H]1CC2(CCN(c3cc(O[C@H](c4ccc(Cl)cc4-c4ccccc4)C(F)(F)F)nc(N)n3)CC2)CN1 [ES928-60-S]
XRPD 16 hours [1]: Form 3
XRPD 4 days [1]: Form 3

CCOC(=O)[C@@H]1CC2(CCN(c3cc(O[C@H](c4ccc(Cl)cc4-c4ccccc4)C(F)(F)F)nc(N)n3)CC2)CN1 [ES928-60-4]
XRPD 16 hours [1]: Form 3
XRPD 4 days [1]: Form 3

CCOC(=O)[C@@H]1CC2(CCN(c3cc(O[C@H](c4ccc(Cl)cc4-c4ccccc4)C(F)(F)F)nc(N)n3)CC2)CN1 [ES-928-62-1]
solubility thermodynamic ([2]; buffer pH 1.2, pH 1.2, simulated gastric fluid, thermodynamic from solid, Buffer pH 1.2, read-out: Conc. Actual): 49 mg/mL (≈ 83 mM)
